Reference: patent publication US9884012B2, “Use of PEDF-derived polypeptides for promoting muscle or tendon regeneration or arteriogenesis” (MacKay Memorial Hospital, priority 2012, dated 2018)

System: bone marrow-derived mesenchymal stem cells (BM-MSCs)
Experiment: BM-MSC differentiation into tenocytes, tenomodulin (TNMD) gene expression by RT-PCR
Type: cell-based, Sprague-Dawley rats
Settings: 50 nM peptide, 1% FBS-DMEM, 24 or 48 hours, in words
Procedure: Primary rat BM-MSCs were isolated from femur of male Sprague-Dawley rats (300-450 g). Femora were aseptically removed and dissected free of adhering tissues, and then the marrow cavities were flushed by injection of DMEM medium. Collected bone marrow cells were incubated in a 100×15-mm Petri dish in DMEM medium supplemented with 10% FBS, 100 U/ml penicillin, and 100 μg/ml streptomycin for 2 weeks in 5% CO2 at 37° C. The medium was replaced every 2 to 3 days. For passage, near-confluent cells were detached by 0.25% trypsin and then 2×10^5 subcultured cells were seeded in a well of 6-well plate and further cultured in the 10% FBS-DMEM. Before treatment, cells were starved for 12 hours in DMEM supplemented with 1% FBS followed by treatment with 50 nM PEDF-derived peptide (29-mer or 20-mer) in fresh 1% FBS-DMEM for either 24 or 48 hours.
The total RNA was extracted from cells using TRIzol and treated with RNase-free DNase I (Qiagen, Santa Clarita, Calif.) to remove genomic DNA and then purified with an RNA purification kit (Dynabeads). […]
The PCR products were electrophoresed in a 2% agarose gel containing ethidium bromide and visualized by UV illumination. The intensities of the PCR products were quantified densitometrically using a FUJI LAS-3000 system and Multi Gauge Ver. […]

Sequence | tenocyte differentiation of BM-MSCs (TNMD gene expression)
SLGAEQRTESIIHRALYYDLISSPDIHGT [29-mer, synthetic peptide corresponding to residues 93-121 of human PEDF] | effective inducer of tenocyte-like cell differentiation
SLGAEQRTESIIHRALYYDL [20-mer, synthetic peptide corresponding to residues 93-112 of human PEDF] | effective inducer of tenocyte-like cell differentiation
